In patent US12145933B2, “Hemi (L)-tartrate forms of 3-({5-chloro-1-[3-(methylsulfonyl)propyl]-1H-indol-2-yl}methyl)-1-(2,2,2-trifluoroethy)-1,3-dihydro-2H-imidazo[4,5-C]pyridin-2-one and pharmaceutical compositions comprising the same” (Janssen Sciences Ireland Unlimited Company, priority 2020, dated 2024):
Values after ≈ are worked out from the molar mass of the structure shown. Values joined by “and” are separate entries in the source; they are usually repeats but may differ in a detail not shown here. Equal entries are not always repeated. “Also recorded” adds a separate entry of the source. Where two headings read alike, the source gives them in different places.

Key:
Type in all cases: physicochemical
[1] = Intrinsic dissolution rate (IDR), μDISS Profiler; settings: for IDR: 37.0 ± 0.5° C., 100 rpm
Experimental: The intrinsic dissolution rate (IDR) describes how fast a compound is released from its solid-state form into solution. The intrinsic dissolution rate is defined as the rate of dissolution of a pure active pharmaceutical ingredient when surface area, stirring speed, pH and ionic-strength of the dissolution medium are kept constant. Thus, it is measured as the release of API from a flat and well-defined surface area into an aqueous solution at a given pH value. By exposing the surface area of a material to an appropriate dissolution medium while maintaining constant temperature, stirring rate, and pH, the intrinsic dissolution rate can be determined. Typically the intrinsic dissolution is expressed in terms of mg per minute per cm^2.
Intrinsic Dissolution Method Parameters:
Pellet Compression Parameters

[2] = Kinetic solubility in biorelevant media (FaSSIF, FeSSIF) with and without HPMC E5; settings: for solubility kinetic at 30 min / solubility kinetic at 60 min / solubility kinetic at 120 min: thermodynamic from solid, as μg rilematovir/mL; for solubility kinetic at 30 min: read-out: kinetic solubility, concentration at 30 minutes; for solubility kinetic at 60 min: read-out: kinetic solubility, concentration at 60 minutes; for solubility kinetic at 120 min: read-out: kinetic solubility, concentration at 120 minutes
Experimental: The kinetic solubility of rilematovir and the hemi (L)-tartrate form of rilematovir in different biorelevant medium (FaSSIF and FeSSIF) in the presence or absence of HPMC E5 was analysed.
An excess amount of rilematovir or the hemi (L)-tartrate form of rilematovir was added to biorelevant medium (approximately 5 mg solid/mL medium was used).
The media were stirred at 150 rpm at a temperature of 37° C. Time-dependent measurements were performed by removing 10 mL aliquots after 30 minutes, 1 hour and 2 hours. Undissolved solid material in the aliquot was removed using a Whatman SPARTAN RC syringe filter (diameter: 30 mm; pore size: 0.2 μm). Afterwards, a suitable dilution was made in NMP/water 30/70; v/v to avoid precipitation. The concentration of rilematovir, or the hemi (L)-tartrate form of rilematovir, in solution was determined using UPLC-UV.

[3] = Equilibrium (thermodynamic) solubility in fed state human intestinal fluids; settings: for solubility Conc / solubility at 24 h: Fed HR pool human intestinal fluids, 37° C., 24 hours; for solubility at 24 h: human, 37 °C, plasma or biological fluid, thermodynamic from solid
Experimental: Determination of the equilibrium solubility of rilematovir in its free base form and its hemi (L)-tartrate form in fed state human intestinal fluids.
The thermodynamic solubility of rilematovir and the hemi (L)-tartrate form of rilematovir was determined using human intestinal fluids obtained from human volunteers in fed state. The pools of human intestinal fluids were prepared from individual intestinal aspirates collected among healthy volunteers under fed state conditions. Fed HR (high responders) pools were build up from duodenal samples in the fed state from volunteers with a clear postprandial bile salt increase.
A small magnetic stirrer bar (about 5 mm in length) and 300 μl of the respective human intestinal fluids at 37° C. were added to the Eppendorf tubes containing an excess of test compound. The mixtures were vortexed for a few seconds and placed on a magnetic stirrer plate (100 rpm) at 37° C.
After 24 hours, the Eppendorf tubes were centrifuged for 5 minutes at 12000 rpm (to separate dissolved from non-dissolved material). 10 µl of the supernatant was diluted into 100 μl methanol), well mixed and centrifuged for 1 minute to separate precipitated protein fraction. The test compound was quantified in the resulting supernatant using UPLC-UV quantification.
The pH was measured at the end of the experiment for each condition (pHend in Table 1).

[4] = Long term storage of liquid aqueous suspension (disproportionation, polymorph conversion)
Experimental: A liquid aqueous suspension comprising Form 1 of the hemi (L)-tartrate form of rilematovir as described in Examples 10, 11, 14 or 15 was stored in a sealed glass vial at a temperature of 30° C., 40° C., and 50° C. Over a period of 8 months samples were taken and analysed (e.g. by XPRD or solid state ^19F-NMR spectroscopy).
FIG. 6 is the solid state ^19F-NMR spectrum of Form 1 having peaks at −70.004 ppm and −73.248 ppm. FIG. 7 is the solid state ^19F-NMR spectrum of Form 3 having a peak at −70.122 ppm.

[5] = FaSSIF with HPMC E5, aqueous with cosolvent or surfactant or cyclodextrin, FaSSIF pH 6.5, HPMC E5 1.39 mg/mL, 37° C.
[6] = FeSSIF with HPMC E5, aqueous with cosolvent or surfactant or cyclodextrin, FeSSIF pH 5.0, HPMC E5 1.39 mg/mL, 37° C.
[7] = FaSSIF pH 6.5, no HPMC E5, 37° C.
[8] = FeSSIF pH 5.0, no HPMC E5, 37° C.
[9] = aqueous with cosolvent or surfactant or cyclodextrin, FaSSIF pH 6.5, HPMC E5 1.39 mg/mL, 37° C.
[10] = aqueous with cosolvent or surfactant or cyclodextrin, FeSSIF pH 5.0, HPMC E5 1.39 mg/mL, 37° C.

Structure (SMILES): CS(=O)(=O)CCCn1c(Cn2c(=O)n(CC(F)(F)F)c3ccncc32)cc2cc(Cl)ccc21 [rilematovir, 3-({5-chloro-1-[3-(methylsulfonyl)propyl]-1H-indol-2-yl}methyl)-1-(2,2,2-trifluoroethyl)-1,3-dihydro-2H-imidazo[4,5-c]pyridin-2-one]
- IDR ([1]; Medium: 0.01N HCl): 8.98 μg/min/cm^2
- IDR ([1]; Medium: Blank FaSSIF): 3.06 μg/min/cm^2
- IDR ([1]; Medium: FASSIF): <1 μg/min/cm^2
- solubility kinetic at 30 min [2, 5]: 1.2 µg/mL (≈ 2.4 µM)
- solubility kinetic at 60 min [2, 5]: 1.3 µg/mL (≈ 2.6 µM)
- solubility kinetic at 120 min [2, 5]: 1.5 µg/mL (≈ 2.99 µM)
- solubility kinetic at 30 min [2, 6]: 12.3 µg/mL (≈ 24.6 µM)
- solubility kinetic at 60 min [2, 6]: 13.4 µg/mL (≈ 26.8 µM)
- solubility kinetic at 120 min [2, 6]: 13.9 µg/mL (≈ 27.7 µM)
- solubility kinetic at 30 min [2, 7]: 1.1 µg/mL (≈ 2.2 µM)
- solubility kinetic at 60 min [2, 7]: 1.1 µg/mL (≈ 2.2 µM)
- solubility kinetic at 120 min [2, 7]: 1.2 µg/mL (≈ 2.4 µM)
- solubility kinetic at 30 min [2, 8]: 12.5 µg/mL (≈ 25 µM)
- solubility kinetic at 60 min [2, 8]: 13.2 µg/mL (≈ 26.4 µM)
- solubility kinetic at 120 min [2, 8]: 13.7 µg/mL (≈ 27.3 µM)
- solubility Conc ([3]; single determinations, listed as free base): 36.80 µg/mL and 32.50 µg/mL
- solubility at 24 h ([3]; fed state human intestinal fluids (Fed HR pool), average of three, read-out: solubility Average): 34.4 µg/mL (≈ 68.7 µM)
- solubility at 24 h ([3]; fed state human intestinal fluids (Fed HR pool), single determinations, read-out: solubility Conc): 34 µg/mL (≈ 67.8 µM)

Structure (SMILES): CS(=O)(=O)CCCn1c(Cn2c(=O)n(CC(F)(F)F)c3ccncc32)cc2cc(Cl)ccc21.O=C(O)C(O)C(O)C(=O)O [hemi (L)-tartrate form of rilematovir]
- disproportionation in liquid aqueous suspension ([4]; sealed glass vial, 30° C., 40° C., 50° C., 8 months, XRPD or solid state 19F-NMR): does not disproportionate; also recorded: no disproportionation has been observed
- polymorph conversion in liquid aqueous suspension ([4]; storage of aqueous suspension over time, XRPD and solid state 19F-NMR): over time Form 1 converts into Form 3
- IDR ([1]; Medium: 0.01N HCl): 147 μg/min/cm^2
- IDR ([1]; Medium: Blank FaSSIF): 5.45 μg/min/cm^2
- IDR ([1]; Medium: FASSIF): 2.10 μg/min/cm^2
- intrinsic dissolution rate (IDR) compared with free base form ([1]; three biorelevant media): higher than the free base form of rilematovir
- solubility kinetic at 30 min [2, 9]: 108 µg/mL
- solubility kinetic at 60 min [2, 9]: 93.1 µg/mL
- solubility kinetic at 120 min [2, 9]: 75.9 µg/mL
- solubility kinetic at 30 min [2, 10]: 1010 µg/mL
- solubility kinetic at 60 min [2, 10]: 853 µg/mL
- solubility kinetic at 120 min [2, 10]: 689 µg/mL
- kinetic solubility relative to free base ([2]; biorelevant media, absence of the suspending agent HPMC): three (in FaSSIF) to six (in FeSSIF) times higher
- solubility kinetic at 30 min [2, 7]: 4.4 µg/mL
- solubility kinetic at 60 min [2, 7]: 3.4 µg/mL
- solubility kinetic at 120 min [2, 7]: 3 µg/mL
- solubility kinetic at 30 min [2, 8]: 82.8 µg/mL
- solubility kinetic at 60 min [2, 8]: 67.1 µg/mL
- solubility kinetic at 120 min [2, 8]: 58.6 µg/mL
- solubility Conc ([3]; single determinations, listed as hemi tartrate form): 122.93 µg/mL and 126.92 µg/mL
- solubility in fed state human intestinal fluids relative to free base form ([3]; fed state human intestinal fluids): more than three times higher
- solubility at 24 h ([3]; average of three, read-out: solubility Average): 117 µg/mL
- solubility at 24 h ([3]; single determinations, read-out: solubility Conc): 102 µg/mL

Structure (SMILES): CS(=O)(=O)CCCn1c(Cn2c(=O)n(CC(F)(F)F)c3ccncc32)cc2cc(Cl)ccc21.CS(=O)(=O)CCCn1c(Cn2c(=O)n(CC(F)(F)F)c3ccncc32)cc2cc(Cl)ccc21.O=C(O)C(=O)O [hemi oxalic co-crystal]
- IDR ([1]; Medium: 0.01N HCl): 32.77 μg/min/cm^2
- IDR ([1]; Medium: Blank FaSSIF): 1.62 μg/min/cm^2
- IDR ([1]; Medium: FASSIF): 1.18 μg/min/cm^2
